Experimental data published in article PMC7037052, “Predicting the Blood-Brain Barrier Permeability of New Drug-Like Compounds via HPLC with Various Stationary Phases” (Molecules, 2020).

Assays:
[1] = test system: Herpes simplex virus type 1; set-up: method as in PMID 30807815; settings: cited from earlier work
normal Vero cells = test system: normal Vero cells; set-up: method as in PMID 30807815; settings: cited from earlier work
[2] = RP-HPLC retention on Purosphere RP-18e (ODS) column, buffer pH 7.4-acetonitrile; assay type: physicochemical; settings: for log kw, ODS: extrapolated to buffer pH 7.4 as mobile phase, 25 °C; for s ODS: slope of Soczewiński-Wachtmeister equation, acetonitrile φ 0.3–0.6
Description: (§1) Retention parameters reported as the log k values were calculated by the expression:(1) logk=log(tR−t0)/t0 where tR and t0 are the retention times of the solute and a non-retained compound (citric acid), respectively. They were used to calculate the log kw values, i.e., logarithms of retention parameter in the buffer as the mobile phase. For this purpose the Soczewiński-Wachtmeister’s equation was used:log k = log kw − sφ(2) where φ is the volume fraction of organic modifier in the mobile phase; k and kw are retention parameters corresponding to mixed effluent and buffer as the mobile phase, respectively. The slope s is characteristic of a given solute and chromatographic system. Strong linear relationships between log k and φ values were found for all the compounds in the range of effluent composition examined (R^2 > 0.9). The log kw values determined for the ODS (log kw, ODS), IAM (log kw, IAM) and Cholester (log kw, Cholester) columns were intercorrelated and the following linear relationships with a very good statistical quality were obtained:log kw, ODS = 0.691(± 0.094) + 0.982(± 0.044) log kw, IAM(3) SD = 0.257; R^2 = 0.8880; N = 65 log kw, ODS = 0.911(± 0.062) + 0.765(± 0.025) log kw, Cholester(4) SD = 0.192; R^2 = 0.9371; N = 65 log kw, IAM = 0.356(± 0.073) + 0.721(± 0.029) log kw, Cholester(5) SD = 0.224; R^2 = 0.9068; N = 65
(§2) Shimadzu Vp (Shimadzu, Izabelin, Poland) liquid chromatographic system equipped with LC 10AT pump, SPD 10A UV-Vis detector, SCL 10A system controller, CTO-10 AS chromatographic oven and Rheodyne injector valve with a 20 µL loop was applied in HPLC measurements. Three stationary phases were employed: • Purosphere RP-18e (ODS), 125 × 4 mm i.d., 5 µm (Merck); • IAM.PC.DD2 100 × 4.6 mm i.d., 10 µm (Regis Chemicals Company, Morton Grove, IL, USA); • Cosmosil Cholester, 75 × 2 mm i.d., 2.5 µm (Genore, Warsaw, Poland).
(§3) As mobile phases buffer-acetonitrile mixtures were used. The buffer was prepared from 0.01 mol L^−1 solutions of Na2HPO4 and citric acid and the pH 7.4 value was fixed before mixing with organic modifier. With the ODS column acetonitrile concentration in the effluent, expressed as a volume fraction (φ, v/v), was changed in the range 0.3–0.6, with the constant step of 0.1. The flow rate was 1 mL min^−1. With the IAM column acetonitrile concentration was changed in the range 0.2–0.5, also with the constant step of 0.1 and the flow rate was 1.3 mL min^−1. With the Cosmosil Cholester column acetonitrile concentration was changed in the range 0.4–0.6, with the constant step of 0.05 and the flow rate was 0.4 mL min^−1. Samples of test compounds were dissolved in acetonitrile—c.a. 0.005 mg mL^−1. […] They were detected under UV light at 210 and 254 nm. All measurements were carried out at 25 °C. The dead time values were measured from non-retained compound (citric acid) peaks. All reported log kw values are the average of at least three independent measurements. The extrapolated retention coefficients (logs kw) achieved by HPLC on ODS, IAM and Cholester stationary phases were used for modelling the log BB permeation of 65 drug-like compounds employed as a whole test set (Table 1).

[3] = RP-HPLC retention on IAM.PC.DD2 (immobilized artificial membrane) column, buffer pH 7.4-acetonitrile; assay type: physicochemical; settings: for log kw, IAM: extrapolated to buffer pH 7.4 as mobile phase, 25 °C; for s IAM: slope of Soczewiński-Wachtmeister equation, acetonitrile φ 0.2–0.5
Description: as §1, §2, §3

[4] = RP-HPLC retention on Cosmosil Cholester column, buffer pH 7.4-acetonitrile; assay type: physicochemical; settings: for log kw, Cholester: extrapolated to buffer pH 7.4 as mobile phase, 25 °C; for s Cholester: slope of Soczewiński-Wachtmeister equation, acetonitrile φ 0.4–0.6
Description: as §1, §2, §3

erythrocytes = test system: erythrocytes; set-up: method as in PMID 30807815; settings: cited from earlier work
normal cells = test system: normal cells; set-up: method as in doi:10.1016/j.arabjc.2016.12.024, PMID 24126095; settings: cited from earlier work
human cancer cells = test system: human cancer cells; set-up: method as in doi:10.1016/j.arabjc.2016.12.024, PMID 24126095; settings: cited from earlier work
[5] = set-up: method as in PMID 24157086, PMID 25528370; settings: cited from earlier work
[6] = set-up: method as in PMID 16331406; settings: rats; BB = Cbrain/Cplasma; training set; cited from earlier work

Compound | log kw, ODS [2] | s ODS [2] | log kw, IAM [3] | s IAM [3] | log kw, Cholester [4] | s Cholester [4] | toxic effects for normal cells (normal cells) | antiproliferative activities in human cancer cells (human cancer cells) | log BBexp. [6] | other results
CN1CCC[C@H]1c1cccnc1 [Compound 54-11-5] | – | – | – | – | – | – | – | – | 0.56 | –
CN1C(=O)CC[C@H]1c1cccnc1 [Compound 486-56-6] | – | – | – | – | – | – | – | – | 0.04 | –
c1cncc([C@@H]2CCCN2)c1 [Compound 494-97-3] | – | – | – | – | – | – | – | – | 0.32 | –
NC(N)=Nc1nc(-c2ccccc2)cs1 [Compound 2507-81-5] | – | – | – | – | – | – | – | – | −0.18 | –
Clc1cccc(Cl)c1NC1=NCCN1 [Compound 4205-90-7] | – | – | – | – | – | – | – | – | 0.19 | –
Brc1cccc(Br)c1NC1=NCCN1 [Compound 4205-93-0] | – | – | – | – | – | – | – | – | 0.33 | –
Clc1ccc(NC2=NCCN2)c(Cl)c1 [Compound 23830-88-8] | – | – | – | – | – | – | – | – | 0.16 | –
Brc1cc(Br)c(NC2=NCCN2)c(Br)c1 [Compound 38941-33-2] | – | – | – | – | – | – | – | – | 0.58 | –
Cc1ncc2n1-c1ccc(Cl)cc1C(c1ccccc1F)=NC2 [Compound 59467-70-8] | – | – | – | – | – | – | – | – | 0.32 | –
COc1ccc2nc([S+]([O-])Cc3ncc(C)c(OC)c3C)[nH]c2c1 (stereo not drawn) [Compound 73590-58-6] | – | – | – | – | – | – | – | – | −0.82 | –
CC(C)(C)OC(=O)c1ncn2c1[C@@H]1CCCN1C(=O)c1c(Br)cccc1-2 [Compound 84379-13-5] | – | – | – | – | – | – | – | – | −0.09 | –
CN1Cc2c(C(=O)OC(C)(C)C)ncn2-c2ccsc2C1=O [Compound 99632-94-7] | – | – | – | – | – | – | – | – | −0.25 | –

Further lines, with some results ahead:

log kw, ODS [2] | s ODS [2] | log kw, IAM [3] | s IAM [3] | log kw, Cholester [4] | s Cholester [4] | Compound | toxic effects for normal cells (normal cells) | antiproliferative activities in human cancer cells (human cancer cells) | log BBexp. [6] | other results
2.53 | 4.49 | 1.85 | 4.11 | 2.05 | 3.61 | CCc1nnc2n(c1=O)CCN2c1ccc(Cl)c(Cl)c1 [Compound 6] | less toxic effects | significant antiproliferative activities | – | potency against Herpes simplex virus type 1 [1]: remarkable concentration-dependent potency; toxicity to normal Vero cells (normal Vero cells): low toxicity; oxidatively-induced haemolysis of erythrocytes (erythrocytes): inhibiting the oxidatively-induced haemolysis
1.90 | 3.82 | 1.33 | 3.33 | 1.29 | 2.75 | COC(=O)Cc1nnc2n(c1=O)CCN2c1ccc(C)cc1 [Compound 8] | – | – | – | antinociceptive effect in mice [5]: strongest antinociceptive effect
1.74 | 3.48 | 0.96 | 2.72 | 1.20 | 2.78 | Cc1ccccc1N1CCn2c1nnc(-c1ccco1)c2=O [Compound 19] | less toxic effects | significant antiproliferative activities | – | –
2.26 | 4.20 | 1.42 | 3.51 | 1.66 | 3.33 | Cc1cccc(N2CCn3c2nnc(-c2ccco2)c3=O)c1C [Compound 21] | less toxic effects | significant antiproliferative activities | – | –
1.67 | 3.48 | 1.11 | 3.02 | 1.22 | 2.68 | COc1ccccc1N1CCn2c1nnc(-c1ccco1)c2=O [Compound 22] | less toxic effects | significant antiproliferative activities | – | –
2.25 | 4.22 | 1.27 | 3.25 | 1.34 | 2.95 | O=c1c(-c2ccco2)nnc2n1CCN2c1ccccc1Cl [Compound 24] | less toxic effects | significant antiproliferative activities | – | –
2.53 | 4.45 | 1.70 | 3.90 | 2.05 | 3.66 | O=c1c(-c2ccco2)nnc2n1CCN2c1c(Cl)cccc1Cl [Compound 28] | less toxic effects | significant antiproliferative activities | – | –
3.41 | 5.20 | 2.57 | 5.32 | 3.19 | 5.30 | O=c1c(-c2ccccc2)nnc2n1CCN2c1ccc(Cl)cc1 [Compound 39] | less toxic effects | significant antiproliferative activities | – | –
3.28 | 5.10 | 2.34 | 4.78 | 2.83 | 4.71 | O=c1c(Cc2ccccc2Cl)nnc2n1CCN2c1ccccc1 [Compound 42] | – | – | – | antinociceptive effect in mice [5]: strongest antinociceptive effect
3.28 | 5.61 | 2.11 | 4.51 | 2.68 | 4.55 | CCOc1ccc(N2CCn3c2nnc(Cc2ccccc2)c3=O)cc1 [Compound 51] | – | – | – | antinociceptive effect in mice [5]: strongest antinociceptive effect
2.46 | 4.44 | 1.81 | 4.08 | 1.94 | 3.66 | O=c1c(CCc2ccccc2)nnc2n1CCN2c1ccccc1Cl [Compound 63] | less toxic effects | significant antiproliferative activities | – | –
3.56 | 5.81 | 2.68 | 5.44 | 3.22 | 5.12 | O=c1c(CCc2ccccc2)nnc2n1CCN2c1ccc(Cl)cc1 [Compound 64] | less toxic effects | significant antiproliferative activities | – | –
